Assay results from US6436903B1, “Immunomodulating compounds comprising d-isomers of amino acids” (Stanford University (Board of Trustees of the Leland …, priority 1996, dated 2002).
“Also recorded” adds a separate entry of the source. No end group written: not given here.

How the values were obtained:
[1] = test system: CD8+ CTL line specific for HLA-A2; assay: Cytotoxicity assay: inhibition of lysis by established CTL (51Cr-labeled JY targets); type: cell-based, human
Description: CTL assays were performed as described using ^51Cr-labeled EBV transformed B cells expressing the appropriate HLA allele as targets [[…] et al., J. Immunol. (1982) 129:2001]. In the present protocol, a CD8+ CTL line specific for HLA-A2 was tested in the presence of various peptides for lysis of ^51Cr-labeled JY targets. Peptides were added to a final concentration of 100 μg/ml at the initiation of the 4 h assay. Each determination was the mean of triplicate wells.

draining lymph nodes = assay: Lymph node proliferation assay (footpad challenge with allogeneic versus syngeneic splenocytes); type: in vivo, rat; details: treated within 24 hours of footpad injection
Description: ACI or PVG rats (200 g) were injected intravenously with peptides dissolved in saline on day 0. On the indicated days thereafter, the left rear footpads of the rats were injected with 5×10^6 splenocytes from a syngeneic donor and the right rear footpads with 5×10^6 splenocytes from an allogeneic Lew donor (Moeller etal. Transplantation (1993)55:650). See also Twist and Barnes Transplantation (1973) 15:182; Fanslow et al. Science (1990) 248:739). Seven days after the footpad injection, the animals were sacrificed and the popliteal lymph nodes removed. A single cell suspension was prepared, and the cell number determined using a hemocytometer.
PVG or ACI rats (3 per group) were given a single intravenous injection of 2 mg of each of the four peptides or saline. On the day of treatment, or on days 1, 7, or 10 after treatment, the right footpads were injected with 5×10^6 syngeneic splenocytes while the left footpads were injected with 5×10^6 allogeneic Lew splenocytes. Seven days after the footpad injections, the draining lymph nodes were removed, a single cell suspension was prepared, and the cell number determined.

rat splenocytes = assay: Differentiation of rat splenocytes into allospecific CTL in vitro; type: cell-based
[2] = test system: Lew specific CTL precursors in splenocytes; assay: Limiting dilution assay for CTL precursors in splenocytes of treated rats; type: in vivo, rat; details: treated on the day of splenectomy or 24 hours earlier
Description: The effect of peptides on CTL precursor frequencies in splenocytes was tested as follows. Limiting dilution analysis was carried out essentially as described (Moeller et al. 1993, supra; Skinner and Marbrook. J. Exp. Med. (1976) 143:1562). Briefly, spleens were removed from naive animals or from animals that had received an allograft a minimum of 60 days earlier and then teased into a single cell suspension. Responder cells were plated from 1000 to 40,000 cells per well (24 replicates per concentration) into round bottom microliter wells in RPMI 1640 supplemented with 10% fetal bovine serum (Hyclone, Logan, Utah), 2 mM L-glutamine, 5×10^5M μ-mercaptoethanol, 100 U/ml penicillin, 100 μg/ml streptomycin, 20% supernatant from Concanavalin A activated rat spleen cells, and 50 μM α-methyl mannoside. Then, 5×10^5 irradiated (2000 rads) stimulator cells were added to each well and plates were incubated in a humidified CO2 incubator. […] Aliquots of supernatant were counted in a gamma counter and CTL precursor frequency determined by linear regression (Skinner and Marbrook. 1976, supra). […]
PVG (RT1^c) or ACI (RT1^a) rats were treated with a single intravenous injection of saline or 2 mg of A2.75-84, B7.75-84, B2702.75-84, or RT1^a.75-84 peptide. […] CTL precursor frequency was determined by linear regression analysis.

purified T cells = assay: Proliferation of purified T cells stimulated by immobilized anti-CD3; type: cell-based, human; details: immobilized anti-CD3 antibody
Description: PBL were isolated from normal donors by centrifugation over Ficoll-Hypaque. In some cases, T cells were purified from this preparation using the method of Secrist et al. [J Exp. Med. (1993) 178:2123]. Briefly, cells isolated over Ficoll-Hypaque were incubated for 1 hour in Petri dishes. Nonadherent cells were passed over a nylon wool column and the resulting population was >90% CD3+ by FACS analysis. CD8+ CTL lines specific for HLA-A2, B7, B27, B48, or Cw4 were generated and maintained in long-term culture as previously described [Buxton et al., J Exp. Med. (1992) 175:809; Wesley et al., Hum. Immunol. (1993) 36:149]. Jurkat E6-1 and the T cell receptor negative Jurkat, JRT3-T3.5, were obtained from the American Type Culture Collection (ATCC; Rockville, Md.). […]
10^5 cells were added to microtiter wells that had been coated with anti-CD3 (Sigma, St. Louis, Mo.) at 5 μg/ml. […] Plates were harvested on a PHD Cell Harvester 24 hours later and [^3H]-thymidine incorporation determined by scintillation counting.
Peptides were evaluated for effects on the proliferation of purified T cells stimulated by immobilized anti-CD3 antibody. […]

[3] = test system: abdominal heterotopic heart allografts; assay: Cardiac allograft survival in rats (Lew heart into ACI recipients); type: in vivo, rat; details: peptide in the two weeks before or 4 days after surgery plus CsA on days 0-4, rats
Description: Vascularized cardiac allografts were heterotypically transplanted into the abdomen of recipient rats using a modification of the technique of Ono and Lindsay (Ono and Lindsey J. Thorac. Cardiovasc. Surg. (1969) 57:225). Abdominal allografts were palpated on a daily basis to assess graft function, and rejection was deemed complete when palpable ventricular contractions ceased.
Cyclosporin A (CsA, Sandoz Pharmaceuticals Corporation, Base, Switzerland) dissolved in olive oil was given orally through a gavage tube at the indicated dose. Peptides were dissolved in water or saline and given intravenously or by gavage as indicated.
Since the B7.75-84 and B2702.75-84 peptides blocked cellular immunity in vivo, we examined their effects on allograft survival in rats. ACI (RT1^a) recipients were given abdominal heterotopic heart allografts from Lew donors (Moeller et al. 1993, supra; Ono and Lindsey. 1969, supra). Graft function was monitored by daily abdominal palpation, and rejection was scored as complete when the palpable ventricular contractions ceased.

Row | Substance | potency relative to B2702.75-84, based on the concentration required to achieve 50% inhibition of cytotoxicity [1] | inhibition of lysis by established CTL ([1]; HLA-A2 specific CD8+ CTL, 51Cr-labeled JY targets, peptide 100 μg/ml, 4 h assay) | ratio of the number of cells recovered, allogeneic versus syngeneic side (draining lymph nodes) | blocking of differentiation of rat splenocytes into allospecific CTL (rat splenocytes) | precursor frequency of Lew specific cells compared with saline [2] | inhibition of proliferation of purified T cells (3H-thymidine incorporation) (purified T cells) | allograft rejection under peptide in combination with CsA [3]
1 | WDRETQICKAKAQTDRENLRIALRY [Peptide B2702.60-84] | approximately 5 fold |  |  |  |  |  | 
2 | B2702.75-84: synthetic peptide, HLA-B2702 residues 75-84, sequence RENLRIALRY [Peptide B2702.75-84] |  | inhibited lysis by established CTL | A similar ratio | blocked the differentiation of rat splenocytes into allospecific CTL in vitro | The same frequency | do not | rejected similarly to allografts in animals treated with CsA alone; also recorded: did not show prevention of allograft rejection
